Laboratory results taken from ChEMBL document CHEMBL4800727 (2021).

Tests used:
[1] = molecular target: D(2) dopamine receptor (Homo sapiens) (UniProt P14416); settings: Compound concentration 10.0 uM
[2] = molecular target: Alpha-2A adrenergic receptor (Homo sapiens) (UniProt P08913); settings: Compound concentration 10.0 uM
[3] = molecular target: 5-hydroxytryptamine receptor 2C (Homo sapiens, UniProt P28335); test: GPCRScan assay: inhibition of 5-HT2C; parameters: radioligand conc. used [nm] 1.0 – 2.5, parental cells HEK T
[4] = molecular target: Alpha-2B adrenergic receptor (Homo sapiens, UniProt P18089); test: GPCRScan assay: inhibition of Alpha2B; parameters: radioligand conc. used [nm] 1.5 – 2.0, parental cells HEKT
Sequence of Alpha-2B adrenergic receptor (P18089 whole entry): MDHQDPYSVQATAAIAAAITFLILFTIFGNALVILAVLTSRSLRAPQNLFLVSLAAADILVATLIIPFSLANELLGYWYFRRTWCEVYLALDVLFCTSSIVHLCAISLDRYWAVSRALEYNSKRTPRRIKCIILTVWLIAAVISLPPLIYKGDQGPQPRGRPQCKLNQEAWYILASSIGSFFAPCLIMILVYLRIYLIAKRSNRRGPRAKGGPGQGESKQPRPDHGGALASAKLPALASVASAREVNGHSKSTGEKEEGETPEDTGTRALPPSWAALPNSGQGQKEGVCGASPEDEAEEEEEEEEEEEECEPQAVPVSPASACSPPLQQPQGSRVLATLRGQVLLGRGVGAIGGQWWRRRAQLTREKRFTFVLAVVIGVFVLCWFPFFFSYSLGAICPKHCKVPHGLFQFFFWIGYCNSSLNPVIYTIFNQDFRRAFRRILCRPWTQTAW

[5] = molecular target: Ephrin type-A receptor 2 (Homo sapiens) (UniProt P29317); test: EPH receptor A2 Millipore kinase panel; settings: Compound concentration 10.0 uM
Sequence of Ephrin type-A receptor 2 (Homo sapiens) (P29317 whole entry): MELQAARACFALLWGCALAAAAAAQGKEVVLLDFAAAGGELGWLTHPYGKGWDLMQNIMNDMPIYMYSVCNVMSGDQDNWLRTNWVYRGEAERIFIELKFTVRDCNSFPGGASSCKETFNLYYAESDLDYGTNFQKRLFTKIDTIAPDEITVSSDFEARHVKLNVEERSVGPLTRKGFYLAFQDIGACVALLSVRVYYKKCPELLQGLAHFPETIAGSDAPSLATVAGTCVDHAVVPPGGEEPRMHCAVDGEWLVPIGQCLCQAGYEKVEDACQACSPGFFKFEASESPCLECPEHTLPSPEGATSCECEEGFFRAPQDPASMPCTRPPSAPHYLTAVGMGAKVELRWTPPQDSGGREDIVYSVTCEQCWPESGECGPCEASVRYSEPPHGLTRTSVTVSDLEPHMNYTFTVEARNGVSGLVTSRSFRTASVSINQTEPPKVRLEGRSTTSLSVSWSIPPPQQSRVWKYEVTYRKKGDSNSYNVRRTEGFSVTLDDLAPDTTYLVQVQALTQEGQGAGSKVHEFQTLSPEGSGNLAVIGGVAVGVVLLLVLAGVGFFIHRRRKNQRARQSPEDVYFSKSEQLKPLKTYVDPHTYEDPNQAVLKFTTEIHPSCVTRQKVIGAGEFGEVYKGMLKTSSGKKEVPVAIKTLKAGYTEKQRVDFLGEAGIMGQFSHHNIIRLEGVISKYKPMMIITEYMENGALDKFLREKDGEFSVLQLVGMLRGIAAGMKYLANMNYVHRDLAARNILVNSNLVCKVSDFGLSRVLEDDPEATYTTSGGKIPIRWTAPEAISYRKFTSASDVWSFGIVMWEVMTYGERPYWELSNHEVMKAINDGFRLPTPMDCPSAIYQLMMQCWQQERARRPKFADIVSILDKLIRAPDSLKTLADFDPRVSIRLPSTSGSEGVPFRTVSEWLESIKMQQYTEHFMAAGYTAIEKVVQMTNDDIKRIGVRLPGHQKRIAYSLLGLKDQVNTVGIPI

[6] = molecular target: Ephrin type-A receptor 5 (Homo sapiens) (UniProt P54756); test: EPH receptor A5 Millipore kinase panel; settings: Compound concentration 10.0 uM
[7] = molecular target: Ephrin type-A receptor 8 (Homo sapiens) (UniProt P29322); test: EPH receptor A8 Millipore kinase panel; settings: Compound concentration 10.0 uM
[8] = molecular target: Vascular endothelial growth factor receptor 1 (Homo sapiens) (UniProt P17948); test: fms-related tyrosine kinase 1 Millipore kinase panel; settings: Compound concentration 10.0 uM
[9] = molecular target: Tyrosine-protein kinase FRK (Homo sapiens) (UniProt P42685); test: fyn-related kinase Millipore kinase panel; settings: Compound concentration 10.0 uM
[10] = molecular target: G protein-coupled receptor kinase 6 (Homo sapiens) (UniProt P43250); test: G protein-coupled receptor kinase 6 Millipore kinase panel; settings: Compound concentration 10.0 uM
[11] = molecular target: Tyrosine-protein kinase HCK (Homo sapiens) (UniProt P08631); test: hemopoietic cell kinase (activated) Millipore kinase panel; settings: Compound concentration 10.0 uM
[12] = molecular target: Tyrosine-protein kinase ITK/TSK (Homo sapiens) (UniProt Q08881); test: IL2-inducible T-cell kinase Millipore kinase panel; settings: Compound concentration 10.0 uM
[13] = molecular target: Insulin-like growth factor 1 receptor (Homo sapiens) (UniProt P08069); test: insulin-like growth factor 1 receptor (activated) Millipore kinase panel; settings: Compound concentration 10.0 uM
Sequence of Insulin-like growth factor 1 receptor (Homo sapiens) (P08069 31-736 limits assumed): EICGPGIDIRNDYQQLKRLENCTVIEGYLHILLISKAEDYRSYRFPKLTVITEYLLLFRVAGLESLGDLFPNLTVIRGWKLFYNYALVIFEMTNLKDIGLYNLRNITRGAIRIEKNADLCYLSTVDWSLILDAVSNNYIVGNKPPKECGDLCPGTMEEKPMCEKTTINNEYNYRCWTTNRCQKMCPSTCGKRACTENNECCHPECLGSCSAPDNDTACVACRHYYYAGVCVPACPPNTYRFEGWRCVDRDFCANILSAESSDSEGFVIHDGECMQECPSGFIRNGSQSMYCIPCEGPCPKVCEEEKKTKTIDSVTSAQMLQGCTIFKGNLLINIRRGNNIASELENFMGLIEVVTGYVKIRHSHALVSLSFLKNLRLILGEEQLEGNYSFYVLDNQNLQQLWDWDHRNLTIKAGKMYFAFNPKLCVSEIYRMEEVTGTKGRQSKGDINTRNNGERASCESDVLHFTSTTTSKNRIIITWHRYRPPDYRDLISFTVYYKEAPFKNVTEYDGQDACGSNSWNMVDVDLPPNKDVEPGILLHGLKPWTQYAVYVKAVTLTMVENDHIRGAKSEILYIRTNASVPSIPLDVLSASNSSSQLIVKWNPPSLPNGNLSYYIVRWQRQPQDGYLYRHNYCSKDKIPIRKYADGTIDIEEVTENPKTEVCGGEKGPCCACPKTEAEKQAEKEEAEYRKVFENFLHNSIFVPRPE
Sequence of Insulin-like growth factor 1 receptor (Homo sapiens) (P08069 741-1367 limits assumed): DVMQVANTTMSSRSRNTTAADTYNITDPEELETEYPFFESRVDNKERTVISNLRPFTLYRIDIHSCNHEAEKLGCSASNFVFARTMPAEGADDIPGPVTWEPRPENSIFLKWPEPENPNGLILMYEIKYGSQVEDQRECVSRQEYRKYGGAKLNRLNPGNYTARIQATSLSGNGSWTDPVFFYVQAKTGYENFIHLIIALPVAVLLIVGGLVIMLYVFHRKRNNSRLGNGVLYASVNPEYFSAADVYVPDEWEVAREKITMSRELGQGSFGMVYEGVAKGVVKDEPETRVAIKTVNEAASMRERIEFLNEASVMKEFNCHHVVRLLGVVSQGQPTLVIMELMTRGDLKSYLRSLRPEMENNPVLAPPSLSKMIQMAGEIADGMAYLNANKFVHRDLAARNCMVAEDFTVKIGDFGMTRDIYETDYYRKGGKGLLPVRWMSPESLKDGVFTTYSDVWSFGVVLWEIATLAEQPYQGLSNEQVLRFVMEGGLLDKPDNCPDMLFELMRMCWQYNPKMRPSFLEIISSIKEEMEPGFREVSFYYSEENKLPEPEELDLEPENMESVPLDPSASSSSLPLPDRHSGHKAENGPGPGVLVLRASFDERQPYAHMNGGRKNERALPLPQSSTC

[14] = molecular target: Insulin-like growth factor 1 receptor (Homo sapiens) (UniProt P08069); test: insulin-like growth factor 1 receptor Millipore kinase panel; settings: Compound concentration 10.0 uM
[15] = molecular target: mTOR/FKBP12A/FKBP12B (Homo sapiens) (UniProt P62942+P68106+P42345); test: mechanistic target of rapamycin / FKBP12 Millipore kinase panel; type: protein-complex assay; settings: Compound concentration 10.0 uM
[16] = molecular target: Serine/threonine-protein kinase mTOR (Homo sapiens) (UniProt P42345); test: mechanistic target of rapamycin Millipore kinase panel; settings: Compound concentration 10.0 uM
[17] = molecular target: Dual specificity mitogen-activated protein kinase kinase 1 (Homo sapiens) (UniProt Q02750); test: mitogen-activated protein kinase kinase 1 Millipore kinase panel; settings: Compound concentration 10.0 uM
[18] = molecular target: Dual specificity mitogen-activated protein kinase kinase 6 (Homo sapiens) (UniProt P52564); test: mitogen-activated protein kinase kinase 6 Millipore kinase panel; settings: Compound concentration 10.0 uM
Sequence of Dual specificity mitogen-activated protein kinase kinase 6 (Homo sapiens) (P52564 whole entry): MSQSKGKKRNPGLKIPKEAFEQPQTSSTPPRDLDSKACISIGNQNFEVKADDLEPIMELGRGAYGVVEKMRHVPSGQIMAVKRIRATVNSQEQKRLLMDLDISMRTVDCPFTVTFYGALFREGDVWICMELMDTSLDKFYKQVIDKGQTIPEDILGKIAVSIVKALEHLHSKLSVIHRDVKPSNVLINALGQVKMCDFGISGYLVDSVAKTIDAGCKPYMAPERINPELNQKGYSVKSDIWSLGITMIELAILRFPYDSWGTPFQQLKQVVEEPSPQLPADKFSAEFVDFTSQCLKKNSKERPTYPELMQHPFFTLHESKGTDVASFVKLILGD

[19] = molecular target: Mitogen-activated protein kinase kinase kinase 7 (Homo sapiens) (UniProt O43318); test: mitogen-activated protein kinase kinase kinase 7 Millipore kinase panel; settings: Compound concentration 10.0 uM
[20] = molecular target: Mitogen-activated protein kinase kinase kinase 9 (Homo sapiens) (UniProt P80192); test: mitogen-activated protein kinase kinase kinase 9 Millipore kinase panel; settings: Compound concentration 10.0 uM
[21] = molecular target: High affinity nerve growth factor receptor (Homo sapiens) (UniProt P04629); test: neurotrophic tyrosine kinase, receptor, type 1 Millipore kinase panel; settings: Compound concentration 10.0 uM
[22] = molecular target: Serine/threonine-protein kinase Nek2 (Homo sapiens) (UniProt P51955); test: NIMA -related kinase 2 Millipore kinase panel; settings: Compound concentration 10.0 uM
[23] = molecular target: PI3-kinase p110-delta/p85-alpha (Homo sapiens) (UniProt P27986+O00329); test: phosphoinositide-3-kinase, catalytic, delta polypeptide Millipore kinase panel; type: protein-complex assay; settings: Compound concentration 10.0 uM
[24] = molecular target: Serine/threonine-protein kinase pim-1 (Homo sapiens) (UniProt P11309); test: pim-1 oncogene Millipore kinase panel; settings: Compound concentration 10.0 uM
[25] = molecular target: Serine/threonine-protein kinase pim-3 (Homo sapiens) (UniProt Q86V86); test: pim-3 oncogene Millipore kinase panel; settings: Compound concentration 10.0 uM
[26] = molecular target: Protein kinase C beta type (Homo sapiens) (UniProt P05771); test: protein kinase C, beta 1 Millipore kinase panel; settings: Compound concentration 10.0 uM
Homo sapiens [27] = species on record: Homo sapiens; test: protein kinase C, beta 2 Millipore kinase panel; settings: Compound concentration 10.0 uM
[28] = molecular target: Protein kinase C gamma type (Homo sapiens) (UniProt P05129); test: protein kinase C, gamma Millipore kinase panel; settings: Compound concentration 10.0 uM
[29] = molecular target: Protein kinase C zeta type (Homo sapiens) (UniProt Q05513); test: protein kinase C, zeta Millipore kinase panel; settings: Compound concentration 10.0 uM
[30] = molecular target: Serine/threonine-protein kinase D1 (Homo sapiens) (UniProt Q15139); test: protein kinase D1 Millipore kinase panel; settings: Compound concentration 10.0 uM
Sequence of Serine/threonine-protein kinase D1 (Homo sapiens) (Q15139 whole entry): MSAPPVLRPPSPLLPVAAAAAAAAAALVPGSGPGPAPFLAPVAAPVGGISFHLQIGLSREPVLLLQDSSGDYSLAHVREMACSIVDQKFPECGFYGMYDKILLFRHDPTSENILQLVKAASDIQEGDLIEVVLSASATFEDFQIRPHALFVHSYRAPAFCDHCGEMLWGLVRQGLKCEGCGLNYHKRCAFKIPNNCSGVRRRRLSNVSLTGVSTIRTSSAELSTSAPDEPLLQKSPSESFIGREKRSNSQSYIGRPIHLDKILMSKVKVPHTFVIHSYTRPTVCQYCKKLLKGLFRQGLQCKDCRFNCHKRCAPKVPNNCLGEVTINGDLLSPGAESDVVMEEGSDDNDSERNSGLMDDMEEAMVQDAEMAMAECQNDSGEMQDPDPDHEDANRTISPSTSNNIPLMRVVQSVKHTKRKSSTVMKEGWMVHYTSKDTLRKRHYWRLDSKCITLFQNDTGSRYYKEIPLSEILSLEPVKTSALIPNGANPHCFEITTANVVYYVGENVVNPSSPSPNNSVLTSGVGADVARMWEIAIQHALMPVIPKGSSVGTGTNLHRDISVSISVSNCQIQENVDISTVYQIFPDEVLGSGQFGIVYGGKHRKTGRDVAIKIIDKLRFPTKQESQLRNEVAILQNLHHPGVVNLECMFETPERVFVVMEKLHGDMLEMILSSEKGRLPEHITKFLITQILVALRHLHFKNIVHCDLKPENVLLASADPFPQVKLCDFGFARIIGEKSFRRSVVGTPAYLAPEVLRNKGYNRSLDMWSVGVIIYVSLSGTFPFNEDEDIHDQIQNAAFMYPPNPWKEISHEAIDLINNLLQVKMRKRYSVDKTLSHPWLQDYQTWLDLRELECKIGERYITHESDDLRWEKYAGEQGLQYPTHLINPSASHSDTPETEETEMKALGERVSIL

[31] = molecular target: cGMP-dependent protein kinase 1 (Homo sapiens) (UniProt Q13976); test: protein kinase, cGMP-dependent, type I Millipore kinase panel; settings: Compound concentration 10.0 uM
[32] = molecular target: Protein-tyrosine kinase 2-beta (Homo sapiens) (UniProt Q14289); test: PTK2B protein tyrosine kinase 2 beta Millipore kinase panel; settings: Compound concentration 10.0 uM
Sequence of Protein-tyrosine kinase 2-beta (Homo sapiens) (Q14289 whole entry, looked up): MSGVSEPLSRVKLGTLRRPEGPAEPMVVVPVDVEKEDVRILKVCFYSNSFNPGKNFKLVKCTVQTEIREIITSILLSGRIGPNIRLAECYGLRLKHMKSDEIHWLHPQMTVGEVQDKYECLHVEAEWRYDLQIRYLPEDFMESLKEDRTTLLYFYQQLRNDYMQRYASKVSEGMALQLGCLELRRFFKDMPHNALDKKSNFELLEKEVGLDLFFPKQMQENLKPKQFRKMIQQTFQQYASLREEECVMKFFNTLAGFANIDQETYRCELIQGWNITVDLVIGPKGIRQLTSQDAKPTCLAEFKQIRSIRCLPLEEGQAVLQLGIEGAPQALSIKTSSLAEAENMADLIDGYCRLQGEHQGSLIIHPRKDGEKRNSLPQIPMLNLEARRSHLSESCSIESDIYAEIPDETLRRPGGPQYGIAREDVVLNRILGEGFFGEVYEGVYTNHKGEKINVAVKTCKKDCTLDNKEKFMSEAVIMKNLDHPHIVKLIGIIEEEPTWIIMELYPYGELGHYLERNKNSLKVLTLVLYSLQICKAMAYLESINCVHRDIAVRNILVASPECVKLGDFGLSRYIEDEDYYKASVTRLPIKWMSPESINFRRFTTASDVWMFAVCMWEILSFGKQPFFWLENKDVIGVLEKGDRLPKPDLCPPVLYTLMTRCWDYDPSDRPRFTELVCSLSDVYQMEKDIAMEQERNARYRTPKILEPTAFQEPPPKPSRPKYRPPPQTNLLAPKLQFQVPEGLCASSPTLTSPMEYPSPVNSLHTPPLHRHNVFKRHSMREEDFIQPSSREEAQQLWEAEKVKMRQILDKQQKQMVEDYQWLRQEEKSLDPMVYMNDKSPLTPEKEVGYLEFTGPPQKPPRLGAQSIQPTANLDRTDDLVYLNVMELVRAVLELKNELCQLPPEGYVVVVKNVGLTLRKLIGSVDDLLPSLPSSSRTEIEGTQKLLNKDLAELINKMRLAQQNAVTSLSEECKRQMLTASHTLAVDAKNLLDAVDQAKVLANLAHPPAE

[33] = molecular target: Serine/threonine-protein kinase STK11 (Homo sapiens) (UniProt Q15831); test: serine/threonine kinase 11 Millipore kinase panel; settings: Compound concentration 10.0 uM
[34] = molecular target: Serine/threonine-protein kinase 17A (Homo sapiens) (UniProt Q9UEE5); test: serine/threonine kinase 17a Millipore kinase panel; settings: Compound concentration 10.0 uM
[35] = molecular target: Serine/threonine-protein kinase 3 (Homo sapiens) (UniProt Q13188); test: serine/threonine kinase 3 Millipore kinase panel; settings: Compound concentration 10.0 uM
[36] = molecular target: Serine/threonine-protein kinase TBK1 (Homo sapiens) (UniProt Q9UHD2); test: TANK-binding kinase 1 Millipore kinase panel; settings: Compound concentration 10.0 uM
[37] = molecular target: Toll-like receptor 4 (Homo sapiens) (UniProt O00206); test: Toll like receptor 4 Millipore kinase panel; settings: Compound concentration 10.0 uM
[38] = molecular target: Serine/threonine-protein kinase VRK2 (Homo sapiens) (UniProt Q86Y07); test: vaccinia related kinase 2 Millipore kinase panel; settings: Compound concentration 10.0 uM
[39] = molecular target: Tyrosine-protein kinase ZAP-70 (Homo sapiens) (UniProt P43403); test: zeta-chain associated protein kinase 70kDa Millipore kinase panel; settings: Compound concentration 10.0 uM
[40] = molecular target: 3',5'-cyclic-AMP phosphodiesterase 4D (Homo sapiens, UniProt Q08499); test: hPDE4D3 PDE scan
[41] = molecular target: Galanin receptor type 2 (Homo sapiens) (UniProt O43603); test: hGAL2 Cerep panel; settings: Compound concentration 10.0 uM
[42] = molecular target: Gastrin/cholecystokinin type B receptor (Homo sapiens) (UniProt P32239); test: hCCK2 Cerep panel; settings: Compound concentration 10.0 uM
[43] = molecular target: Endothelin-1 receptor (Homo sapiens) (UniProt P25101); test: hETA Cerep panel; settings: Compound concentration 10.0 uM
[44] = molecular target: Muscarinic acetylcholine receptor M3 (Homo sapiens) (UniProt P20309); test: hM3 Cerep panel; settings: Compound concentration 10.0 uM
[45] = molecular target: Substance-P receptor (Homo sapiens) (UniProt P25103); test: hNK1 Cerep panel; settings: Compound concentration 10.0 uM
[46] = molecular target: Substance-K receptor (Homo sapiens) (UniProt P21452); test: hNK2 Cerep panel; settings: Compound concentration 10.0 uM
[47] = molecular target: 5-hydroxytryptamine receptor 5A (Homo sapiens) (UniProt P47898); test: h5HT5A Cerep panel; settings: Compound concentration 10.0 uM
[48] = molecular target: 5-hydroxytryptamine receptor 6 (Homo sapiens) (UniProt P50406); test: h5HT6 Cerep panel; settings: Compound concentration 10.0 uM
[49] = molecular target: Acetylcholinesterase (Homo sapiens) (UniProt P22303); test: hACHE Cerep panel; settings: Compound concentration 10.0 uM
Homo sapiens [50] = species on record: Homo sapiens; test: hSigma Cerep panel; settings: Compound concentration 10.0 uM
[51] = molecular target: Prostaglandin G/H synthase 1 (Homo sapiens) (UniProt P23219); test: hCOX1 Cerep panel; settings: Compound concentration 10.0 uM
[52] = molecular target: D(1B) dopamine receptor (Homo sapiens) (UniProt P21918); settings: Compound concentration 10.0 uM

c1ccc(C2CCN(c3cnc4c(N5CCOCC5)nccn34)CC2)cc1
inhibition [1]: 1.22%
inhibition [2]: 34.6%

COCCc1ccc(-c2c(C)nc3c(N4CCOCC4)ccnn23)cn1 [JNJ-42396302]
Ki [3]: 2.2 µM
Ki [4]: > 10 µM
pKi [4]: < 5
inhibition [5]: 7%
inhibition [6]: -9%
inhibition [7]: 0%
inhibition [8]: -5%
inhibition [9]: -7%
inhibition [10]: 3%
inhibition [11]: -3%
inhibition [12]: 1%
inhibition [13]: 3%
inhibition [14]: 1%
inhibition [15]: 9%
inhibition [16]: 1%
inhibition [17]: -1%
inhibition [18]: -5%
inhibition [19]: 5%
inhibition [20]: 5%
inhibition [21]: 7%
inhibition [22]: -1%
inhibition [23]: 1%
inhibition [24]: 10%
inhibition [25]: 11%
inhibition [26]: -5%
inhibition (Homo sapiens [27]): 3%
inhibition [28]: -4%
inhibition [29]: 5%
inhibition [30]: -5%
inhibition [31]: 2%
inhibition [32]: -4%
inhibition [33]: 4%
inhibition [34]: -9%
inhibition [35]: -8%
inhibition [36]: -3%
inhibition [37]: -5.24%
inhibition [38]: -4%
inhibition [39]: 4%
Ki [40]: 15 µM
effect [41]: 6.7%
effect [42]: -5.55%
effect [43]: 5.55%
effect [44]: 13.9%
effect [45]: 3.05%
effect [46]: 9.7%
effect [47]: 5.7%
effect [48]: 4.9%
effect [49]: 0.2%
effect (Homo sapiens [50]): 1.55%
effect [51]: 13%
inhibition [52]: 25.3%
